Measured values published in patent US8247211B2, “Glycopeptide antibiotics” (American Cyanamid Company, priority 2001, dated 2012).

Legend:
Enterococcus sp. = experiment: In vitro antibacterial evaluation: minimum inhibitory concentration (MIC), broth dilution method; format: cell-based; conditions: broth dilution, 5×10^5 CFU/mL, 18 hours at 35° C.
In short: (§1)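 Inoculum: 5×10^5 CFU/mL. Range: 64-0.06 μg/mL. Medium: Muller-Hinton II […]; NCCLS M7-A2 broth dilution. Endpoint: lowest concentration inhibiting growth. Strains include methicillin-, penicillin- and/or vancomycin-resistant clinical isolates.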

Escherichia coli = experiment: as above; format: cell-based; conditions: 5×10^5 CFU/mL, 18 hours at 35° C.
In short: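 MIC read as lowest drug level preventing visible growth. Organisms at 5×10^5 CFU/mL were exposed to a 64-0.06 μg/mL dilution series in Muller-Hinton II […] following NCCLS broth dilution standard M7-A2.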

Staphylococcus sp. = experiment: as above; format: cell-based; conditions: for MIC Staphylococcus aureus (ATCC 29213): strain ATCC 29213; for MIC Staphylococcus aureus (GC 1131): strain GC 1131; for MIC Staphylococcus aureus (GC 3051): strain GC 3051; for MIC Staphylococcus aureus (GC 3053): strain GC 3053; for MIC Staphylococcus aureus (GC 4541): strain GC 4541; for MIC Staphylococcus aureus (GC 4542): strain GC 4542; for MIC Staphylococcus aureus (GC 4544): strain GC 4544; for MIC Staphylococcus aureus (GC 4545): strain GC 4545
In short: as §1

Streptococcus sp. = experiment: as above; format: cell-based; conditions: broth dilution, 5×10^5 CFU/mL, 18 hours at 35° C.
In short: as §1

[1] = test system: Staphylococcus aureus-SMITH (GC 4543); experiment: Acute lethal infection in mice (ED50); format: in vivo; conditions: female CD-1 mice, intraperitoneal challenge, intravenous dose 30 min. after infection, 7 day survival ratios
In short: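 Female CD-1 mice (20 ± 1-2 g) were infected intraperitoneally with enough bacteria, suspended in Trypticase Soy Broth or hog gastric mucin, to kill untreated controls within 24-48 hr. Compound in saline or 5% dextrose was given intravenously 30 min after infection. ED50 came from pooled 7-day survival over 3 tests.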

[2] = broth dilution, 18 hours at 35° C.
[3] = strain GC 4543, broth dilution, 18 hours at 35° C.
[4] = strain GC 4546, broth dilution, 18 hours at 35° C.
[5] = strain GC 4547, broth dilution, 18 hours at 35° C.
[6] = strain GC 4548, broth dilution, 18 hours at 35° C.
[7] = strain GC 4549, broth dilution, 18 hours at 35° C.
[8] = strain GC 4551, broth dilution, 18 hours at 35° C.
[9] = strain GC 6257, broth dilution, 18 hours at 35° C.
[10] = broth dilution, 5×10^5 CFU/mL, 18 hours at 35° C.

CC(c1ccccc1)C1NC(=O)CNC(=O)C(CO)NC(=O)C(C(O)C2CNC(=N)N2C2OC(CO)C(O)C(O)C2O)NC(=O)C(C(O)C2CNC(=N)N2)NC(=O)C(Cc2ccc(OC3OC(CO)C(OC4OC5COC(Cc6ccc(Cl)cc6)OC5C(O)C4O)C(O)C3O)cc2)NC1=O (stereo not drawn) [Example 120, Cyclo[glycyl-β-methylphenylalanyl-O-[4-O-[4,6-O-(4-chlorophenethylidene)hexopyranosyl]-hexopyranosyl]tyrosyl-3-(2-iminoimidazolidin-4-yl)seryl-3-(3-hexopyranosyl-2-iminoimidazolidin-4-yl)serylseryl]]
1 µg/mL: MIC Enterococccus avium (GC 4558) (Enterococcus sp.) | MIC Enterococccus faecalis (ATCC 29212) (Enterococcus sp.) | MIC Enterococccus faecalis (GC 2691) (Enterococcus sp.) | MIC Enterococccus faecalis (GC 3059) (Enterococcus sp.) | MIC Enterococccus faecalis (GC 4552) (Enterococcus sp.) | MIC Enterococccus faecalis (GC 4553) (Enterococcus sp.) | MIC Enterococccus faecalis (GC 4554) (Enterococcus sp.) | MIC Enterococccus faecalis (GC 6189) (Enterococcus sp.) | MIC Enterococccus faecium (GC 2243) (Enterococcus sp.) | MIC Enterococccus faecium (GC 4556) (Enterococcus sp.) | MIC Enterococccus faecium (GC 4557) (Enterococcus sp.) | MIC Enterococcus faecalis (GC 2242) (Enterococcus sp.) | MIC Staphylococcus aureus (GC 3053) (Staphylococcus sp.) | MIC Staphylococcus aureus (GC 3053) (Staphylococcus sp.; [2]) | MIC Coagulase Negative Staphylococcus (GC 4547) (Staphylococcus sp.; strain GC 4547) | MIC Coagulase Negative Staphylococcus (GC 4547) (Staphylococcus sp.; [5])
16 µg/mL: MIC Escherichia coli (ATCC 25922) (Escherichia coli) | MIC Escherichia coli (GC 4559) (Escherichia coli)
<0.5 µg/mL: MIC Escherichia coli (GC 4560) (Escherichia coli) | MIC Staphylococcus aureus (ATCC 29213) (Staphylococcus sp.) | MIC Staphylococcus aureus (ATCC 29213) (Staphylococcus sp.; [2]) | MIC Staphylococcus aureus (GC 1131) (Staphylococcus sp.) | MIC Staphylococcus aureus (GC 1131) (Staphylococcus sp.; [2]) | MIC Staphylococcus aureus (GC 3051) (Staphylococcus sp.) | MIC Staphylococcus aureus (GC 3051) (Staphylococcus sp.; [2]) | MIC Staphylococcus aureus (GC 4541) (Staphylococcus sp.) | MIC Staphylococcus aureus (GC 4541) (Staphylococcus sp.; [2]) | MIC Staphylococcus aureus (GC 4542) (Staphylococcus sp.) | MIC Staphylococcus aureus (GC 4542) (Staphylococcus sp.; [2]) | MIC Staphylococcus aureus-SMITH (GC 4543) (Staphylococcus sp.; strain GC 4543, 18 hours at 35° C.) | MIC Staphylococcus aureus-SMITH (GC 4543) (Staphylococcus sp.; [3]) | MIC Staphylococcus aureus (GC 4544) (Staphylococcus sp.) | MIC Staphylococcus aureus (GC 4544) (Staphylococcus sp.; [2]) | MIC Staphylococcus aureus (GC 4545) (Staphylococcus sp.) | MIC Staphylococcus aureus (GC 4545) (Staphylococcus sp.; [2]) | MIC Staphylococcus haemolyticus (GC 4546) (Staphylococcus sp.; strain GC 4546) | MIC Staphylococcus haemolyticus (GC 4546) (Staphylococcus sp.; [4]) | MIC Coagulase Negative Staphylococcus (GC 4548) (Staphylococcus sp.; strain GC 4548) | MIC Coagulase Negative Staphylococcus (GC 4548) (Staphylococcus sp.; [6]) | MIC Coagulase Negative Staphylococcus (GC 4549) (Staphylococcus sp.; strain GC 4549) | MIC Coagulase Negative Staphylococcus (GC 4549) (Staphylococcus sp.; [7]) | MIC Coagulase Negative Staphylococcus (GC 4551) (Staphylococcus sp.; strain GC 4551) | MIC Coagulase Negative Staphylococcus (GC 4551) (Staphylococcus sp.; [8]) | MIC Coagulase Negative Staphylococcus (GC 6257) (Staphylococcus sp.; strain GC 6257) | MIC Coagulase Negative Staphylococcus (GC 6257) (Staphylococcus sp.; [9]) | MIC Streptococcus agalactiae (GC 4564) (Streptococcus sp.) | MIC Streptococcus pneumoniae (GC 1894) (Streptococcus sp.) | MIC Streptococcus pneumoniae (GC 4565) (Streptococcus sp.) | MIC Streptococcus pneumonine (ATCC 6301) (Streptococcus sp.) | MIC Streptococcus pyogenes (GC 4563) (Streptococcus sp.)
0.06 mg/kg: median effective dose (ED50), Staphylococcus aureus-SMITH (GC 4543) [1]

COc1cccc(C2OCC3OC(OC4C(CO)OC(Oc5ccc(CC6NC(=O)C(C(C)c7ccccc7)NC(=O)CNC(=O)C(CO)NC(=O)C(C(O)C7CNC(=N)N7C7OC(CO)C(O)C(O)C7O)NC(=O)C(C(O)C7CNC(=N)N7)NC6=O)cc5)C(O)C4O)C(O)C(O)C3O2)c1 (stereo not drawn) [Example 137, Cyclo[glycyl-β-methylphenylalanyl-O-[4-O-[4,6-O-(3-methoxybenzylidene)hexopyranosyl]-hexopyranosyl]-tyrosyl-3-(2-iminoimidazolidin-4-yl)seryl-3-(3-hexopyranosyl-2-iminoimidazolidin-4-yl)serylseryl]]
1 µg/mL: MIC Escherichia coli (GC 4560) (Escherichia coli) | MIC Coagulase Negative Staphylococcus (GC 6257) (Staphylococcus sp.; [10]) | MIC Staphylococcus haemolyticus (GC 4546) (Staphylococcus sp.; [10]) | MIC Staphylococcus haemolyticus (GC 4546) (Staphylococcus sp.; [4]) | MIC Coagulase Negative Staphylococcus (GC 6257) (Staphylococcus sp.; [9])
0.12 µg/mL: MIC Streptococcus pneumonine (ATCC 6301) (Streptococcus sp.)
0.5 to 1 µg/mL: MIC Coagulase Negative Staphylococcus (GC 4549) (Staphylococcus sp.; [10]) | MIC Coagulase Negative Staphylococcus (GC 4549) (Staphylococcus sp.; [7])
1 to 2 µg/mL: MIC Coagulase Negative Staphylococcus (GC 4547) (Staphylococcus sp.; [10]) | MIC Coagulase Negative Staphylococcus (GC 4551) (Staphylococcus sp.; [10]) | MIC Staphylococcus aureus-SMITH (GC 4543) (Staphylococcus sp.; [10]) | MIC Staphylococcus aureus (ATCC 29213) (Staphylococcus sp.) | MIC Staphylococcus aureus (ATCC 29213) (Staphylococcus sp.; [2]) | MIC Staphylococcus aureus (GC 3051) (Staphylococcus sp.) | MIC Staphylococcus aureus (GC 3051) (Staphylococcus sp.; [2]) | MIC Staphylococcus aureus (GC 4541) (Staphylococcus sp.) | MIC Staphylococcus aureus (GC 4541) (Staphylococcus sp.; [2]) | MIC Staphylococcus aureus (GC 4542) (Staphylococcus sp.) | MIC Staphylococcus aureus (GC 4542) (Staphylococcus sp.; [2]) | MIC Staphylococcus aureus-SMITH (GC 4543) (Staphylococcus sp.; [3]) | MIC Coagulase Negative Staphylococcus (GC 4547) (Staphylococcus sp.; [5]) | MIC Coagulase Negative Staphylococcus (GC 4551) (Staphylococcus sp.; [8])
0.5 µg/mL: MIC Streptococcus agalactiae (GC 4564) (Streptococcus sp.)
<2 to 4 µg/mL: MIC Staphylococcus aureus (GC 4545) (Staphylococcus sp.)
4 µg/mL: MIC Enterococccus faecalis (GC 6189) (Enterococcus sp.)
4 to 8 µg/mL: MIC Enterococccus avium (GC 4558) (Enterococcus sp.) | MIC Enterococccus faecalis (ATCC 29212) (Enterococcus sp.) | MIC Enterococccus faecalis (GC 2691) (Enterococcus sp.) | MIC Enterococccus faecalis (GC 3059) (Enterococcus sp.) | MIC Enterococccus faecalis (GC 4552) (Enterococcus sp.) | MIC Enterococccus faecalis (GC 4553) (Enterococcus sp.) | MIC Enterococccus faecalis (GC 4554) (Enterococcus sp.) | MIC Enterococccus faecium (GC 2243) (Enterococcus sp.) | MIC Enterococccus faecium (GC 4556) (Enterococcus sp.) | MIC Enterococcus faecalis (GC 2242) (Enterococcus sp.)
2 to 4 µg/mL: MIC Enterococccus faecium (GC 4557) (Enterococcus sp.) | MIC Staphylococcus aureus (GC 3053) (Staphylococcus sp.) | MIC Staphylococcus aureus (GC 3053) (Staphylococcus sp.; [2]) | MIC Staphylococcus aureus (GC 4545) (Staphylococcus sp.; [2])
<0.06 µg/mL: MIC Streptococcus pneumoniae (GC 1894) (Streptococcus sp.)
64 µg/mL: MIC Escherichia coli (ATCC 25922) (Escherichia coli)
0.24 mg/kg: median effective dose (ED50), Staphylococcus aureus-SMITH (GC 4543) [1]
2 µg/mL: MIC Staphylococcus aureus (GC 1131) (Staphylococcus sp.) | MIC Staphylococcus aureus (GC 1131) (Staphylococcus sp.; [2]) | MIC Staphylococcus aureus (GC 4544) (Staphylococcus sp.) | MIC Staphylococcus aureus (GC 4544) (Staphylococcus sp.; [2])
0.5 to 2 µg/mL: MIC Coagulase Negative Staphylococcus (GC 4548) (Staphylococcus sp.; [10]) | MIC Coagulase Negative Staphylococcus (GC 4548) (Staphylococcus sp.; [6])
0.25 µg/mL: MIC Streptococcus pneumoniae (GC 4565) (Streptococcus sp.) | MIC Streptococcus pyogenes (GC 4563) (Streptococcus sp.)
